We go through 27 molecules from patent US20090291977A1, “Chromane Derivatives Useful As Acid Pump Antagonists” (priority 2004, published 2009).

In this test the target is T1, Porcine gastric H+/K+-ATPase (Sus scrofa, UniProt P19156).
T1 construct: The gastric vesicles were collected from interface on 0.25 M sucrose layer containing 7% Ficoll; from tissue; host or cells: mucous membrane of fresh porcine stomachs (gastric vesicles)
The test can be described thus: Ion-leaky porcine gastric H+/K+-ATPase inhibition. The class given is biochemical. Conditions: ion-leaky vesicles, 5 mM KCl, pH 6.4, 37° C., 30 minutes. How it is done:
The porcine gastric vesicles for Porcine gastric H^+/K^+-ATPase inhibition assays were prepared from mucous membrane in fresh porcine stomachs by homogenization with a tight-fitted polytetrafluoroethylene (Teflone®) homogenizer in 0.25 M sucrose at 4° C. The crude pellet was removed with centrifugation at 20,000 g for 30 min. Then supernatant was centrifuged at 100,000 g for 30 min. The resulting pellet was re-suspended in 0.25 M sucrose, and then subjected to density gradient centrifugation at 132,000 g for 90 min. The gastric vesicles were collected from interface on 0.25 M sucrose layer containing 7% Ficoll™ PM400(Amersham Biosciences). This procedure was performed in a cold room.
Ion-leaky porcine gastric H^+/K^+-ATPase-inhibition was measured according to the modified method described in Biochemical Pharmacology, 1988, 37, 2231-2236.
The isolated vesicles were lyophilized, and then kept in deep-freezer until use. For enzyme assay, lyophilized vesicles were reconstituted with 3 mM MgSO4 containing 40 mM Bis-tris (pH 6.4 at 37° C.).
Enzyme reaction was performed incubating 5 mM KCl, 3 mM Na2ATP, 3 mM MgSO4 and 1.0 μg of reconstituted vesicles for 30 minutes at 37° C. in a final 60 μl of reaction mixture (40 mM Bis-tris, pH 6.4) with or without the test compound. Enzyme reaction was stopped by adding 10% sodium dodecyl sulphate (SDS). Released inorganic phosphate from ATP was detected by incubation with mixture of 1 part of 35 mM ammonium molybdate tetrahydrate in 15 mM Zinc acetate hydrate and 4 parts of 10% ascorbic acid (pH 5.0), resulting in phosphomolybdate, which has optical density at 750 nm.

T1 sequence (P19156 2-1034 limits assumed): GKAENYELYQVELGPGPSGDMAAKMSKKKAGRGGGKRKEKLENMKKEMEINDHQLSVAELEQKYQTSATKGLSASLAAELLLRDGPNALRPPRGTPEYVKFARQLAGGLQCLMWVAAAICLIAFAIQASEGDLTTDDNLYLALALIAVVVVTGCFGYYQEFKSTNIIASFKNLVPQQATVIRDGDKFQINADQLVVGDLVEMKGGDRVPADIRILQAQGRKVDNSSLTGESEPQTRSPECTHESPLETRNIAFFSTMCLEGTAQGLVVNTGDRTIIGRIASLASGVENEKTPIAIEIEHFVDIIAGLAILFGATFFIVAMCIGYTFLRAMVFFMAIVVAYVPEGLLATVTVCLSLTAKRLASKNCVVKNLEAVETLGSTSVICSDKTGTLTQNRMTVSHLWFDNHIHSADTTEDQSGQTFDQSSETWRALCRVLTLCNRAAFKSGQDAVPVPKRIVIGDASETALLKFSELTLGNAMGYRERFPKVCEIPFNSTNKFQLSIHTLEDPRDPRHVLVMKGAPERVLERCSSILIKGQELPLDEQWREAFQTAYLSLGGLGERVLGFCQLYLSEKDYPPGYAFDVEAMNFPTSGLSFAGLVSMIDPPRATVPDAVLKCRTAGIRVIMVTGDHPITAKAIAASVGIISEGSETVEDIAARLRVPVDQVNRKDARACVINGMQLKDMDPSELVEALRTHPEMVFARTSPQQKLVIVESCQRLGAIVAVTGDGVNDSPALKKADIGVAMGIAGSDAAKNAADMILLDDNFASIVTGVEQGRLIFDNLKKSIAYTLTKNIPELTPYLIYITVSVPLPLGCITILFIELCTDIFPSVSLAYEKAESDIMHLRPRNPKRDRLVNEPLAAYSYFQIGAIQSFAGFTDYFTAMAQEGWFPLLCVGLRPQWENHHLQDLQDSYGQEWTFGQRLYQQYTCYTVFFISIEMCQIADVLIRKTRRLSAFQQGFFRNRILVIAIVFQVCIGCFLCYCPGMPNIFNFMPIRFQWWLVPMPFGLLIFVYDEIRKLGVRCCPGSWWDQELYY
T1 sequence (P18434 whole entry partner): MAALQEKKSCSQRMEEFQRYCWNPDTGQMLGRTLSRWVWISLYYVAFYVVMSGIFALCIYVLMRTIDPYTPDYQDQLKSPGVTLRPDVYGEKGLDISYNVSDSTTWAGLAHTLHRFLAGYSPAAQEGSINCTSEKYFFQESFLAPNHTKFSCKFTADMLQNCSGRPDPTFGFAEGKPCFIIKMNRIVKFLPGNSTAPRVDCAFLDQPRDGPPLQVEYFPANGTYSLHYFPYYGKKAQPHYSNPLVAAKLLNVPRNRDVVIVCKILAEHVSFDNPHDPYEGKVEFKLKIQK

By IC50 is commonly meant the midpoint of a concentration-inhibition curve. Low values mean greater potency, high ones weaker potency. `Cc1nc2c(NC3COCc4ccccc43)cc(C(=O)N(C)CCO)cn2c1C` (single isomer, unassigned; (-)) [Example 4-2, (−)-8-(3,4-Dihydro-1H-isochromen-4-ylamino)-N-(2-hydroxyethyl)-N,2,3-trimethylimidazo[1,2-a]pyridine-6-carboxamide] registered an IC50 of 273 nM.
The value for `Cc1cccc2c1C(Nc1cc(C(=O)N(C)CCO)cn3c(C)c(C)nc13)CCO2` (racemic) [Example 5-1, N-(2-Hydroxyethyl)-N,2,3-trimethyl-8-[(5-methyl-3,4-dihydro-2H-chromen-4-yl)amino]imidazo[1,2-a]pyridine-6-carboxamide] was 94.7 nM; that for `Cc1nc2c(NC3CCOc4cccc(F)c43)cc(C(=O)N(C)C)cn2c1C` (single isomer, unassigned) [Example 10-3, 8-[(5-Fluoro-3,4-dihydro-2H-chromen-4-yl)amino]-N,N,2,3-tetramethylimidazo[1,2-a]pyridine-6-carboxamide] was 91 nM; that for `Cc1nc2c(NC3CCOc4c(F)cccc43)cc(C(=O)N(C)CCO)cn2c1C` (single isomer, unassigned) [Example 15-2, 8-[(8-Fluoro-3,4-dihydro-2H-chromen-4-yl)amino]-N-(2-hydroxyethyl)-N,2,3-trimethylimidazol[1,2-a]pyridine-6-carboxamide] was 230 nM.
The value for `Cc1nc2c(NC3CCOc4ccc(F)cc43)cc(C(=O)N(C)CCO)cn2c1C` (single isomer, unassigned) [Example 13-3, 8-[(6-Fluoro-3,4-dihydro-2H-chromen-4-yl)amino]-N-(2-hydroxyethyl)-N,2,3-trimethylimidazol[1,2-a]pyridine-6-carboxamide] was 170 nM; that for `Cc1nc2c(NC3CCOc4cc(F)cc(F)c43)cc(C(=O)N(C)C)cn2c1C` (single isomer, unassigned) [Example 8-2, 8-[(5,7-Difluoro-3,4-dihydro-2H-chromen-4-yl)amino]-N,N,2,3-tetramethylimidazo[1,2-a]pyridine-6-carboxamide] was 23 nM.
In turn, `Cc1nc2c(NC3CCOc4ccccc43)cc(C(=O)N(C)CCO)cn2c1C` (single isomer, unassigned; (+)) [Example 2-3, (+)-8-(3,4-Dihydro-2H-chromen-4-ylamino)-N-(2-hydroxyethyl)-N,2,3-trimethylimidazo[1,2-a]pyridine-6-carboxamide] gave a half-inhibitory concentration (IC50) of 64 nM.
As to `Cc1nc2c(NC3CCOc4ccc(F)cc43)cc(C(=O)N(C)C)cn2c1C` (single isomer, unassigned) [Example 12-3, 8-[(6-Fluoro-3,4-dihydro-2H-chromen-4-yl)amino]-N,N,2,3-tetramethylimidazo[1,2-a]pyridine-6-carboxamide], 81.1 nM corresponded to half-maximal inhibition (IC50).
The value for `Cc1nc2c(NC3CCOc4ccccc43)cc(C(=O)N(C)CCO)cn2c1C` (racemic) [Example 2-1, 8-(3,4-Dihydro-2H-chromen-4-ylamino)-N-(2-hydroxyethyl)-N,2,3-trimethylimidazo[1,2-a]pyridine-6-carboxamide] was 49.7 nM.
With `Cc1nc2c(NC3CCOc4c(F)cccc43)cc(C(=O)N(C)C)cn2c1C` (racemic) [Example 14-1, 8-[(8-Fluoro-3,4-dihydro-2H-chromen-4-yl)amino]-N,N,2,3-tetramethylimidazo[1,2-a]pyridine-6-carboxamide], the half-maximal inhibitory concentration (IC50) worked out at 294 nM. Against the preceding molecule, the IC50 is about 5.9-fold higher.
The value for `Cc1nc2c(NC3CCOc4cc(F)cc(F)c43)cc(C(=O)N(C)CCO)cn2c1C` (racemic) [Example 9-1, 8-[(5,7-Difluoro-3,4-dihydro-2H-chromen-4-yl)amino]-N-(2-hydroxyethyl)-N,2,3-trimethylimidazo[1,2-a]pyridine-6-carboxamide] was 50 nM; that for `Cc1nc2c(NC3CCOc4ccccc43)cc(C(=O)N(C)C)cn2c1C` (racemic) [Example 1-1, 8-(3,4-Dihydro-2H-chromen-4-ylamino)-N,N,2,3-tetramethylimidazo[1,2-a]pyridine-6-carboxamide] was 85 nM; that for `Cc1nc2c(NC3CCOc4cc(F)ccc43)cc(C(=O)N(C)CCO)cn2c1C` (single isomer, unassigned) [Example 7-2, 8-[(7-Fluoro-3,4-dihydro-2H-chromen-4-yl)amino]-N-(2-hydroxyethyl)-N,2,3-trimethylimidazol[1,2-a]pyridlne-6-carboxamide] was 20.5 nM.
The value for `Cc1nc2c(NC3CCOc4cc(F)ccc43)cc(C(=O)N(C)CCO)cn2c1C` (single isomer, unassigned) [Example 7-3, 8-[(7-Fluoro-3,4-dihydro-2H-chromen-4-yl)amino]-N-(2-hydroxyethyl)-N,2,3-trimethylimidazol[1,2-a]pyridlne-6-carboxamide] was 55.9 nM; that for `Cc1ccc2c(c1)OCCC2Nc1cc(C(=O)N(C)CCO)cn2c(C)c(C)nc12` (single isomer, unassigned) [Example 16-3, N-(2-Hydroxyethyl)-N,2,3-trimethyl-8-[(7-methyl-3,4-dihydro-2H-chromen-4-yl)amino]imidazo[1,2-a]pyridine-6-carboxamide] was 180 nM.
The value for `Cc1nc2c(NC3CCOc4cccc(F)c43)cc(C(=O)N(C)C)cn2c1C` (racemic) [Example 10-1, 8-[(5-Fluoro-3,4-dihydro-2H-chromen-4-yl)amino]-N,N,2,3-tetramethylimidazo[1,2-a]pyridine-6-carboxamide] was 75.1 nM.
`Cc1nc2c(NC3CCOc4cc(F)cc(F)c43)cc(C(=O)N(C)CCO)cn2c1C` (single isomer, unassigned) [Example 9-2, 8-[(5,7-Difluoro-3,4-dihydro-2H-chromen-4-yl)amino]-N-(2-hydroxyethyl)-N,2,3-trimethylimidazo[1,2-a]pyridine-6-carboxamide]: the IC50 is 15.9 nM.
The value for `Cc1nc2c(NC3CCOc4cccc(Cl)c43)cc(C(=O)N(C)CCO)cn2c1C` (racemic) [Example 19-1, 8-[(5-Chloro-3,4-dihydro-2H-chromen-4-yl)amino]-N-(2-hydroxyethyl)-N,2,3-trimethylimidazo[1,2-a]pyridine-6-carboxamide] was 390 nM.
The value for `Cc1nc2c(NC3CCOc4cc(F)ccc43)cc(C(=O)N(C)C)cn2c1C` (racemic) [Example 6-1, 8-[(7-Fluoro-3,4,dihydro-2H-chromen-4-yl)amino]-N,N,2,3-tetramethylimidazo[1,2-a]pyridine-6-carboxamide] was 13.9 nM; that for `Cc1nc2c(NC3CCOc4c(F)cccc43)cc(C(=O)N(C)CCO)cn2c1C` (single isomer, unassigned) [Example 15-3, 8-[(8-Fluoro-3,4-dihydro-2H-chromen-4-yl)amino]-N-(2-hydroxyethyl)-N,2,3-trimethylimidazol[1,2-a]pyridine-6-carboxamide] was 370 nM.
The value for `Cc1nc2c(NC3CCOc4cccc(Cl)c43)cc(C(=O)N(C)CCO)cn2c1C` (single isomer, unassigned) [Example 19-2, 8-[(5-Chloro-3,4-dihydro-2H-chromen-4-yl)amino]-N-(2-hydroxyethyl)-N,2,3-trimethylimidazo[1,2-a]pyridine-6-carboxamide] was 600 nM.
With `Cc1nc2c(NC3COCc4ccccc43)cc(C(=O)N(C)C)cn2c1C` (single isomer, unassigned; (+)) [Example 3-3, (+)-8-(3,4-Dihydro-1H-isochromen-4-ylamino)-N,N,2,3-tetramethylimidazo[1,2-a]pyridine-6-carboxamide], the IC50 stood at 67.6 nM.
The value for `Cc1cccc2c1C(Nc1cc(C(=O)N(C)CCO)cn3c(C)c(C)nc13)CCO2` (single isomer, unassigned; (-)) [Example 5-2, (−)-N-(2-Hydroxyethyl)-N,2,3-trimethyl-8-[(5-methyl-3,4-dihydro-2H-chromen-4-yl)amino]imidazo[1,2-a]pyridine-6-carboxamide] was 86.2 nM.
Molecule `Cc1cccc2c1C(Nc1cc(C(=O)N(C)C)cn3c(C)c(C)nc13)CCO2` (single isomer, unassigned) [Example 17-2, N,N,2,3-Tetramethyl-8-[(5-methyl-3,4-dihydro-2H-chromen-4-yl)amino]imidazo[1,2-a]pyridine-6-carboxamide] came in with a half-maximal inhibitory concentration (IC50) of 43 nM.
The value for `Cc1nc2c(NC3CCOc4ccccc43)cc(C(=O)N(C)CCO)cn2c1C` (single isomer, unassigned; (-)) [Example 2-2, (−)-8-(3,4-Dihydro-2H-chromen-4-ylamino)-N-(2-hydroxyethyl)-N,2,3-trimethylimidazo[1.2-a]pyridine-6-carboxamide] was 81.1 nM.
Take “8-3,4-Dihydro-1H-isochromen-4-ylamino)-N,N,2,3-tetramethylimidazo[1,2-a]pyridine-6-carboxamide [Example 3-1]”: it took 103 nM to reach half-maximal inhibition (IC50). This IC50 and that of the molecule before are within 1.5-fold of each other.
The value for `Cc1nc2c(NC3CCOc4c(F)cccc43)cc(C(=O)N(C)CCO)cn2c1C` (racemic) [Example 15-1, 8-[(8-Fluoro-3,4-dihydro-2H-chromen-4-yl)amino]-N-(2-hydroxyethyl)-N,2,3-trimethylimidazol[1,2-a]pyridine-6-carboxamide] was 40.9 nM.
